Experiments:
[1] = compound: CC1=C(N=C(N=C1N)[C@H](CC(=O)N)NC[C@@H](C(=O)N)N)C(=O)N[C@@H]([C@H](C2=CN=CN2)OC3C(C(C(C(O3)CO)O)O)OC4C(C(C(C(O4)CO)O)OC(=O)N)O)C(=O)N[C@H](C)[C@H]([C@H](C)C(=O)N[C@@H]([C@@H](C)O)C(=O)NCCC5=NC(=CS5)C6=NC(=CS6)C(=O)NCCC[S+](C)C)O [Bleomycin]; assay: relative viability (nuclei count vs DMSO), 5 days (fraction); higher = more cells survive; details: main component drawn
How it was run: (§1)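 In 1536-well plates, lung cancer cell lines rested overnight at 37 °C before five library-drug doses (not always all listed), √10 apart, were pinned onto vehicle-anchored plates. Nuclei were counted with MetaXpress from 4× Hoechst images taken after 5 days without medium change. Viability compares treated-well with vehicle-well nuclei as a median over plates, and plates needed control CV below 25% plus at least one doubling to pass.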

[2] = compound: COc1cc([C@@H]2c3cc4c(cc3[C@@H](O[C@@H]3O[C@@H]5CO[C@@H](C)O[C@H]5[C@H](O)[C@H]3O)[C@H]3COC(=O)[C@H]23)OCO4)cc(OC)c1O [Etoposide]; assay: as above
How it was run: as §1

Cell Line | relative viability ([1]; 0.01 µM) | relative viability ([1]; 0.03162 µM) | relative viability ([1]; 0.1 µM) | relative viability ([1]; 0.3162 µM) | relative viability ([1]; 1 µM) | relative viability ([2]; 0.01 µM) | relative viability ([2]; 0.03162 µM) | relative viability ([2]; 0.1 µM) | relative viability ([2]; 0.3162 µM) | relative viability ([2]; 1 µM)
NCI-H358 | 0.879 | 0.944 | 0.829 | 0.445 | 0.428 | 0.985 | 0.982 | 0.564 | 0.302 | 0.17
NCI-H441 | 0.626 | 0.922 | 0.862 | 0.651 | 0.42 | 0.923 | 1.03 | 0.751 | 0.308 | 0.172
NCI-H460 | 0.738 | 0.661 | 0.483 | 0.0877 | 0.0714 | 0.899 | 0.933 | 0.785 | 0.164 | 0.0591
NCI-H520 | 0.901 | 0.92 | 0.816 | 0.747 | 0.602 | 0.881 | 0.879 | 0.636 | 0.87 | 0.709
NCI-H522 | 0.833 | 0.79 | 0.666 | 0.432 | 0.345 | 0.977 | 1.04 | 0.811 | 0.928 | 0.743
NCI-H596 | 0.775 | 0.754 | 0.637 | 0.377 | 0.412 | 0.866 | 1.03 | 0.685 | 0.877 | 0.734
NCI-H647 | 0.397 | 0.369 | 0.237 | 0.125 | 0.0764 | 0.815 | 1.07 | 0.815 | 0.442 | 0.195
NCI-H650 | 0.743 | 1.11 | 0.768 | 0.492 | 0.242 | 0.949 | 0.98 | 0.68 | 0.561 | 0.256
NCI-H661 | 0.907 | 0.875 | 0.767 | 0.475 | 0.394 | 1.03 | 1.03 | 0.873 | 0.827 | 0.565
NCI-H727 | 0.891 | 0.777 | 0.831 | 0.391 | 0.687 | 0.945 | 1.04 | 0.586 | 0.87 | 0.852
NCI-H838 | 0.692 | 0.436 | 0.301 | 0.229 | 0.213 | 0.963 | 1.03 | 0.719 | 0.773 | 0.351
NCI-H1299 | 0.937 | 1.03 | 0.936 | 0.601 | 0.287 | 1.01 | 0.995 | 1.07 | 0.932 | 0.779
NCI-H1355 | 0.935 | 1.02 | 0.979 | 0.482 | 0.297 | 0.947 | 1.08 | 0.535 | 0.713 | 0.33
NCI-H1395 | 0.753 | 0.833 | 0.603 | 0.476 | 0.398 | 0.872 | 0.961 | 0.804 | 0.781 | 0.658
NCI-H1437 | 0.879 | 0.985 | 0.886 | 0.654 | 0.567 | 1.04 | 1.07 | 0.999 | 0.68 | 0.343
NCI-H1563 | 0.843 | 0.836 | 0.783 | 0.625 | 0.652 | 0.816 | 0.974 | 0.791 | 0.641 | 0.55
NCI-H1623 | 0.84 | 0.936 | 0.807 | 0.466 | 0.469 | 0.859 | 0.907 | 0.687 | 0.818 | 0.303

Cell Line | relative viability ([1]; 0.01 µM) | relative viability ([1]; 0.03162 µM) | relative viability ([1]; 0.1 µM) | relative viability ([1]; 0.3162 µM) | relative viability ([1]; 1 µM) | relative viability ([2]; 0.01 µM) | relative viability ([2]; 0.03162 µM) | relative viability ([2]; 0.1 µM) | relative viability ([2]; 0.3162 µM) | relative viability ([2]; 1 µM)
NCI-H1648 | 0.71 | 0.696 | 0.773 | 0.608 | 0.68 | – | 1.01 | 0.783 | 0.674 | 0.516
NCI-H1650 | 0.584 | 0.394 | 0.243 | 0.179 | 0.195 | 0.897 | 0.903 | 0.739 | 0.38 | 0.161
NCI-H1651 | 0.865 | 0.825 | 0.711 | 0.456 | 0.254 | 0.976 | 0.997 | 0.792 | 0.485 | 0.199
NCI-H1666 | 0.781 | 0.737 | 0.649 | 0.474 | 0.451 | 0.947 | 0.908 | 0.818 | 0.483 | 0.414
NCI-H1703 | 0.928 | 0.895 | 0.826 | 0.381 | 0.272 | 0.761 | 1.03 | 0.75 | 0.711 | 0.371
NCI-H1734 | 0.811 | 0.743 | 0.717 | 0.411 | 0.287 | 0.979 | 1.2 | 0.597 | 0.676 | 0.304
NCI-H1755 | 0.94 | 1 | 0.96 | 0.813 | 0.673 | 0.998 | 1.05 | 0.963 | 0.935 | 0.829
NCI-H1792 | 0.755 | 1.03 | 0.733 | 0.387 | 0.421 | 1.01 | 1.22 | 0.522 | 0.816 | 0.416
NCI-H1793 | 0.817 | 0.772 | 0.754 | 0.293 | 0.226 | 0.813 | 1.12 | – | 0.758 | 0.334
NCI-H1915 | 0.739 | 0.74 | 0.489 | 0.287 | 0.165 | 1 | 1.1 | 0.891 | 0.889 | 0.684
NCI-H1944 | 0.53 | 0.481 | 0.397 | 0.232 | 0.184 | 0.973 | 1.13 | 0.729 | 0.522 | 0.273
NCI-H1975 | 0.746 | 0.714 | 0.589 | 0.289 | 0.226 | 0.842 | 1.07 | 0.817 | 0.809 | 0.402
NCI-H1993 | 0.853 | 0.899 | 0.876 | 0.601 | 0.564 | 0.727 | 1.1 | 0.636 | 0.783 | 0.501
NCI-H2009 | 0.953 | 1.02 | 1.01 | 0.659 | 0.566 | 1.02 | 1.03 | 0.938 | 0.765 | 0.42
NCI-H2023 | 0.698 | 0.68 | 0.517 | 0.21 | 0.142 | 0.868 | 1.02 | 0.599 | 0.465 | 0.148
NCI-H2085 | 0.925 | 0.913 | 0.83 | 0.56 | 0.515 | 0.926 | 1.01 | 0.903 | 0.868 | 0.507
